Assay results reported in patent US9181234B2, “Antibacterial compounds” (priority 2010, dated 2015).
Converted amounts (≈) assume the structure as drawn.

Experiments:
physchem = settings: for solubility at 24 h: kinetic from dmso stock
In short: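 DMSO doubling dilutions were diluted twenty-fold into 100 mM citrate (pH 4), PBS (pH 7.4) or carbonate-bicarbonate (pH 9). After 24 h equilibration at room temperature, absorbance was read at 620 nm. The reported value is the highest concentration without measurable precipitate.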

[1] = tested on: Staphylococcus aureus (Isolate ID ATCC 29213); experiment: Antibacterial activity, MIC, S. aureus; format: cell-based; settings: broth microdilution or agar dilution; for MIC: Staphylococcus aureus, ATCC29213, Gram positive strain
In short: (§1)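 CLSI-guided dilution susceptibility testing (broth or agar) gave the MIC for each strain.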

[2] = tested on: Enterococcus faecalis (Isolate ID ATCC 29212); experiment: Antibacterial activity, MIC, E. faecalis; format: cell-based; settings: Gram positive strain, broth microdilution or agar dilution; for MIC: Enterococcus faecalis, ATCC29212
In short: as §1

[3] = tested on: Streptococcus pyogenes (Isolate ID ATCC 51339); experiment: Antibacterial activity, MIC, S. pyogenes; format: cell-based; settings: broth microdilution or agar dilution; for MIC: Streptococcus pyogenes, ATCC51339, Gram positive strain
In short: as §1

[4] = tested on: Haemophilus influenzae (Isolate ID ATCC 49247); experiment: Antibacterial activity, MIC, H. influenzae; format: cell-based; settings: Gram negative strain, broth microdilution or agar dilution; for MIC: Haemophilus influenzae, ATCC49247
In short: as §1

[5] = pH 7.4, aqueous buffer, Solubility (pH 7.4)
[6] = pH 7.4, aqueous buffer, Solubility Range
[7] = pH 9, aqueous buffer, Max Solubility
[8] = pH 9, aqueous buffer, Solubility Range (maximum solubility)
[9] = pH 7.4, aqueous buffer, Max Solubility
[10] = pH 7.4, aqueous buffer, Solubility Range (maximum solubility)

Row | solubility at 24 h (physchem; [5]) [µg/mL] | solubility at 24 h (physchem; [6]) [µg/mL] | solubility at 24 h (physchem; [7]) [µg/mL] | solubility at 24 h (physchem; [8]) [µg/mL] | MIC [1] [µg/mL] | MIC [2] [µg/mL] | MIC [3] [µg/mL] | MIC [4] [µg/mL] | Solubility (pH 7.4) (physchem; pH 7.4) [μg/mL] | Max Solubility (physchem; pH 9) | Antibacterial Activity (MIC) S. aureus (ATCC 29213) ([1]; Gram positive strain) | Antibacterial Activity (MIC) E. faecalis (ATCC 29212) [2] | Antibacterial Activity (MIC) S. pyogenes (ATCC 51339) ([3]; Gram positive strain) | Antibacterial Activity (MIC) H. influenzae (ATCC 49247) [4] | solubility at 24 h (physchem; [9]) [µg/mL] | solubility at 24 h (physchem; [10]) [µg/mL] | Compound
1 | 400 (≈ 733 µM) | 400 to 800 (≈ 733 to 1470 µM) |  |  | ≤ 0.25 | ≤ 0.25 | ≤ 0.25 | 1 to 16 (≈ 1.83 to 29.3 µM) |  |  |  |  |  |  |  |  | CCCC1(C(=O)O)CCN(c2ncc(-c3cc(-c4ccccn4)c4sc(NC(=O)NCC)nc4c3)cn2)CC1 [Compound 117]
2 | 400 (≈ 732 µM) | 400 to 800 (≈ 732 to 1460 µM) | ≥ 800 | > 800 | ≤ 0.25 | ≤ 0.25 | ≤ 0.25 | 1 to 16 (≈ 1.83 to 29.3 µM) |  |  |  |  |  |  |  |  | CCCC1(C(=O)O)CCN(c2ncc(-c3cc(-c4cnccn4)c4sc(NC(=O)NCC)nc4c3)cn2)CC1 [Compound 118]
3 | 400 (≈ 713 µM) | 400 to 800 (≈ 713 to 1430 µM) | ≥ 800 | > 800 | ≤ 0.25 | ≤ 0.25 | ≤ 0.25 | > 16 |  |  |  |  |  |  |  |  | CCCC1(C(=O)O)CCN(c2ncc(-c3cc(-c4nccc(C)n4)c4sc(NC(=O)NCC)nc4c3)cn2)CC1 [Compound 120]
4 | 100 (≈ 173 µM) | 12.5 to 400 (≈ 21.7 to 694 µM) | ≥ 800 | > 800 | ≤ 0.25 | ≤ 0.25 | ≤ 0.25 | 1 to 16 (≈ 1.73 to 27.7 µM) |  |  |  |  |  |  |  |  | CCCC1(C(=O)O)CCN(c2ncc(-c3cc(-c4cc(OC)ncn4)c4sc(NC(=O)NCC)nc4c3)cn2)CC1 [Compound 121]
5 | ≥ 800 | > 800 |  |  | ≤ 0.25 | ≤ 0.25 | ≤ 0.25 | 1 to 16 (≈ 1.74 to 27.8 µM) |  |  |  |  |  |  | ≥ 800 | > 800 | CCCC1(C(=O)O)CCN(c2ncc(-c3cc(-c4cc(OC)ccn4)c4sc(NC(=O)NCC)nc4c3)cn2)CC1 [Compound 122]
6 | ≥ 800 | > 800 |  |  | ≤ 0.25 | ≤ 0.25 | ≤ 0.25 | > 16 |  |  |  |  |  |  | ≥ 800 | > 800 | CCCC1(C(=O)O)CCN(c2ncc(-c3cc(-c4cc(C#N)ccn4)c4sc(NC(=O)NCC)nc4c3)cn2)CC1 [Compound 123]
7 | 12.5 (≈ 21.7 µM) | 12.5 to 400 (≈ 21.7 to 694 µM) | 25 (≈ 43.4 µM) | 12.5 to 400 (≈ 21.7 to 694 µM) | ≤ 0.25 | ≤ 0.25 | ≤ 0.25 | > 16 |  |  |  |  |  |  |  |  | CCCC1(C(=O)O)CCN(c2ncc(-c3cc(-c4nccc(OC)n4)c4sc(NC(=O)NCC)nc4c3)cn2)CC1 [Compound 127]

The remaining lines, values behind:

Row | Compound | solubility at 24 h (physchem; [5]) [µg/mL] | solubility at 24 h (physchem; [6]) [µg/mL] | solubility at 24 h (physchem; [7]) [µg/mL] | solubility at 24 h (physchem; [8]) [µg/mL] | MIC [1] [µg/mL] | MIC [2] [µg/mL] | MIC [3] [µg/mL] | MIC [4] [µg/mL] | Solubility (pH 7.4) (physchem; pH 7.4) [μg/mL] | Max Solubility (physchem; pH 9) | Antibacterial Activity (MIC) S. aureus (ATCC 29213) ([1]; Gram positive strain) | Antibacterial Activity (MIC) E. faecalis (ATCC 29212) [2] | Antibacterial Activity (MIC) S. pyogenes (ATCC 51339) ([3]; Gram positive strain) | Antibacterial Activity (MIC) H. influenzae (ATCC 49247) [4] | solubility at 24 h (physchem; [9]) [µg/mL] | solubility at 24 h (physchem; [10]) [µg/mL]
8 | CCNC(=O)Nc1nc2cc(-c3cnc(N4CCC(CC)(C(=O)O)CC4)nc3)cc(-c3ccc(F)cc3)c2s1 [Compound 115] | 400 (≈ 729 µM) | 400 to 800 (≈ 729 to 1460 µM) | ≥ 800 | > 800 | ≤ 0.25 | ≤ 0.25 | 1 to 16 (≈ 1.82 to 29.2 µM) | > 16 |  |  |  |  |  |  |  | 
9 | CCCC1(C(=O)OCC)CCN(c2ncc(-c3cc(Br)c4sc(NC(=O)NCC)nc4c3)cn2)CC1 [Compound 119] |  |  |  |  |  |  |  |  | 400 | ≧800 μg/mL | A (“A” activity ≦0.25 μg/mL) | A (“A” activity ≦0.25 μg/mL) | C (“C” activity >1.0 μg/mL-16 μg/mL) | D (“D” activity >16 μg/mL) |  | 
10 | CCCC1(C(=O)O)CCN(c2ncc(-c3cc(-c4ccc(C#N)cn4)c4sc(NC(=O)NCC)nc4c3)cn2)CC1 [Compound 124] | ≥ 800 | > 800 |  |  | ≤ 0.25 | ≤ 0.25 | ≤ 0.25 | 1 to 16 (≈ 1.75 to 28 µM) |  |  |  |  |  |  | ≥ 800 | > 800
11 | CCCC1(C(=O)O)CCN(c2ncc(-c3cc(-c4ncnc5[nH]ccc45)c4sc(NC(=O)NCC)nc4c3)cn2)CC1 [Compound 125] | 50 (≈ 85.4 µM) | 12.5 to 400 (≈ 21.3 to 683 µM) | ≥ 800 | > 800 | 0.25 to 1 (≈ 0.427 to 1.71 µM) | ≤ 0.25 | ≤ 0.25 | > 16 |  |  |  |  |  |  |  | 
12 | CCCC1(C(=O)O)CCN(c2ncc(-c3cc(-c4ncccc4C#N)c4sc(NC(=O)NCC)nc4c3)cn2)CC1 [Compound 126] | 100 (≈ 175 µM) | 12.5 to 400 (≈ 21.9 to 701 µM) | ≥ 800 | > 800 | ≤ 0.25 | ≤ 0.25 | ≤ 0.25 | 1 to 16 (≈ 1.75 to 28 µM) |  |  |  |  |  |  |  | 
13 | CCNC(=O)Nc1nc2cc(-c3cnc(N4CCC(N)(C(=O)O)CC4)nc3)cc(-c3ccccn3)c2s1 [Compound 128, 4-amino-1-[5-[2-(ethylcarbamoylamino)-7-(2-pyridyl)-1,3-benzothiazol-5-yl]pyrimidin-2-yl]piperidine-4-carboxylic acid] | 25 (≈ 48.2 µM) | 12.5 to 400 (≈ 24.1 to 771 µM) |  |  | > 16 | > 16 | 1 to 16 (≈ 1.93 to 30.9 µM) | > 16 |  |  |  |  |  |  |  | 
